This is an account of results in ChEMBL document CHEMBL2021765, “Design and synthesis of thiourea derivatives containing a benzo[5,6]cyclohepta[1,2-b]pyridine moiety as potential antitumor and anti-inflammatory agents” (Bioorg Med Chem Lett, 2012).

In one experiment the test system is MCF7. Nature of the experiment: cells. It counts as functional, cell-based. Conditions: Homo sapiens, MCF7, 144 h.
In the next experiment the test system is MDA-MB-231. Nature of the experiment: cells. It counts as functional, cell-based. The note with it: Homo sapiens, MDA-MB-231, 144 h.
In another experiment the test system is HT-29. Nature of the experiment: cells. It counts as functional, cell-based. The note with it: Homo sapiens, HT-29, 144 h.
The subject of experiment [1] is Mus musculus. Nature of the experiment: Antiinflammatory activity in overnight fasted Kunming mouse assessed as inhibition of xylene-induced ear swelling at 4 mg/kg, ip administered before challenge for 5 days measured 1 hr post xylene challenge. It counts as functional. The note with it: route intraperitoneal.
The subject of experiment [2] is Mus musculus. Nature of the experiment: Antiinflammatory activity in overnight fasted Kunming mouse assessed as inhibition of xylene-induced ear swelling at 30 mg/kg, ip administered before challenge for 5 days measured 1 hr post xylene challenge. It counts as functional. The note with it: route intraperitoneal.
The target in experiment [3] is T1, Prostaglandin G/H synthase 1 (Ovis aries) (UniProt P05979).
T1 sequence (whole entry): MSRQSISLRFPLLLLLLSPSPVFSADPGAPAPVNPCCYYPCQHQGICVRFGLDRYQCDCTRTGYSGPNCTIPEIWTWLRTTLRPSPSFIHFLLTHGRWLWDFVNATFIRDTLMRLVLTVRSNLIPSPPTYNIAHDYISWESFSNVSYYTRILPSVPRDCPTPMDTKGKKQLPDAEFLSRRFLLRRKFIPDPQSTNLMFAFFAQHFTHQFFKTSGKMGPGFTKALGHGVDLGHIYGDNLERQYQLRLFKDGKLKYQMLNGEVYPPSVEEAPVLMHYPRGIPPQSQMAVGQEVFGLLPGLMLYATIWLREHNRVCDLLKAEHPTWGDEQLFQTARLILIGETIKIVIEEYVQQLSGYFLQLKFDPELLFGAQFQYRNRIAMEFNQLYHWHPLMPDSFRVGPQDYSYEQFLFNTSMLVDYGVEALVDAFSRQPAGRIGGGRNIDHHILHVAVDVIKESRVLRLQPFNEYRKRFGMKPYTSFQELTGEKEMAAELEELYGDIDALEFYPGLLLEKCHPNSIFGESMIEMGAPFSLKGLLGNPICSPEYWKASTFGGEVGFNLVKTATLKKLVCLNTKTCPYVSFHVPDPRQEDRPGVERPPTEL
Nature of the experiment: Inhibition of ovine COX1 at 10 uM by ELISA.

Description for HT-29: Antiproliferative activity against human HT-29 cells assessed as growth inhibition after 144 hrs by crystal violet staining method
Description for MCF7: Antiproliferative activity against human MCF7 cells assessed as growth inhibition after 144 hrs by crystal violet staining method
Description for MDA-MB-231: Antiproliferative activity against human MDA-MB-231 cells assessed as growth inhibition after 144 hrs by crystal violet staining method

Broadly, the IC50 is the midpoint of a concentration-inhibition curve. Low values mean higher potency, high ones lower potency. The inhibition in vivo is the relative decrease from the control value, in per cent. With `CNC(=S)N1CCC(=C2c3ccc(Cl)cc3CCc3cccnc32)CC1`, the IC50 came out at 9.4 µM with MCF7, 7.1 µM in the experiment on MDA-MB-231 and 9.6 µM in the experiment on HT-29. In the experiment with Mus musculus [1], the inhibition in vivo at 4 mg/kg is 26.1%.
Take `CCOC(=O)N1CCC(=C2c3ccc(Cl)cc3CCc3cccnc32)CC1` [LORATADINE]: the IC50 in the experiment on MCF7 turned out to be 7.5 µM; with MDA-MB-231 it was 8.4 µM; with HT-29 it was 6.2 µM.
In the case of `CC(C)Cc1ccc(C(C)C(=O)O)cc1` (stereo not drawn) [IBUPROFEN], the inhibition in vivo at 30 mg/kg in the experiment on Mus musculus [2] was 39.1%. Also, the inhibition in vivo at 4 mg/kg with Mus musculus [1] came out at 8.69%.
By inhibition is commonly meant the relative decrease from the control value, in per cent. A higher inhibition goes with a response far below the control. As to `S=C(NC1CCCCC1)N1CCC(=C2c3ccc(Cl)cc3CCc3cccnc32)CC1`, the inhibition in experiment [3] worked out at 11.6%. Also, the IC50 in the experiment with MCF7 was found to be 5.1 µM; in the experiment on MDA-MB-231 it was 8.1 µM; in the experiment with HT-29 it was 6.2 µM. For the same molecule, the inhibition in vivo at 4 mg/kg with Mus musculus [1] amounted to 30.4%.
Molecule `CC(=O)Oc1ccccc1C(=O)O` came in with an inhibition in experiment [3] of 29%.
For the molecule `COc1ccccc1NC(=S)N1CCC(=C2c3ccc(Cl)cc3CCc3cccnc32)CC1`, the results for the IC50 in the experiment on MCF7, in the experiment with MDA-MB-231 and with HT-29 were 7.6 µM, 10.4 µM and 9.2 µM, respectively. In addition, the inhibition in vivo at 4 mg/kg with Mus musculus [1] came out at 21.7%.
In the experiment on MCF7, `O=c1[nH]cc(F)c(=O)[nH]1` [FLUOROURACIL] displayed an IC50 of 4.7 µM.
With `Cc1ccccc1NC(=S)N1CCC(=C2c3ccc(Cl)cc3CCc3cccnc32)CC1`, the IC50 in the experiment on MCF7 is 5.4 µM; with MDA-MB-231, 4.7 µM; in the experiment on HT-29 it was 6.6 µM. The inhibition in vivo at 4 mg/kg with Mus musculus [1] turned out to be 13%.
In the same order, the values of `S=C(Nc1ccccc1)N1CCC(=C2c3ccc(Cl)cc3CCc3cccnc32)CC1` are 5.6 µM, 6.4 µM, 6.7 µM and 21.7%.
